How the values were obtained:
[1] = target: T1, Prostaglandin E2 receptor EP3 subtype (Homo sapiens, UniProt P43115); test: Displacement of [3H]PGE2 from human EP3 receptor
T1 sequence (P43115 whole entry): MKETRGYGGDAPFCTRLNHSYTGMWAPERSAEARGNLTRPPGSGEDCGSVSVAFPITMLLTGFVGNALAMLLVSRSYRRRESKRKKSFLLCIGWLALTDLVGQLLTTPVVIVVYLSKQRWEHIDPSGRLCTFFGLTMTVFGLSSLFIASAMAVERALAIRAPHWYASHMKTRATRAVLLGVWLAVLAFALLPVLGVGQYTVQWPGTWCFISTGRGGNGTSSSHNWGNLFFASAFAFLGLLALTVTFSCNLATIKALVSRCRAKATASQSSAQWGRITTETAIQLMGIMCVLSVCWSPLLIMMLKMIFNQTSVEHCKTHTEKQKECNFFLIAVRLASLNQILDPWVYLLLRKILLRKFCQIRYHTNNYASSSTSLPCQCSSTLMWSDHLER

[2] = target: T2, Prostaglandin E2 receptor EP4 subtype (Homo sapiens, UniProt P35408); test: Activity at EP4 receptor at 10 uM by FLIPR assay
T2 sequence (P35408 whole entry): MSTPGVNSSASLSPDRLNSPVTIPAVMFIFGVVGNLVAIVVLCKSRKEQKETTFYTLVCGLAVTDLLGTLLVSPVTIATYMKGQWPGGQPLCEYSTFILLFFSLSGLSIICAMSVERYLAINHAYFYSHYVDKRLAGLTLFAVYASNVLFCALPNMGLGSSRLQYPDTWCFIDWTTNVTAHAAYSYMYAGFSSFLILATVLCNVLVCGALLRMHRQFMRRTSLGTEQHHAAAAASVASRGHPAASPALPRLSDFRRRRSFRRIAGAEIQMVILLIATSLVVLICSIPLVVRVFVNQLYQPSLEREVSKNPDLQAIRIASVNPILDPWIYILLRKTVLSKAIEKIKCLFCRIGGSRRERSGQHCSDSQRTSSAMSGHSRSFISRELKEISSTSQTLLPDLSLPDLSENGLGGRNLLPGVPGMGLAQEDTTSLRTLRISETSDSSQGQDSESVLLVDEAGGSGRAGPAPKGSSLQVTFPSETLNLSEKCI

[3] = target: T3, Prostaglandin E2 receptor EP1 subtype (Homo sapiens) (UniProt P34995); test: Activity at EP1 receptor at 0.1 uM by FLIPR assay
T3 sequence (whole entry): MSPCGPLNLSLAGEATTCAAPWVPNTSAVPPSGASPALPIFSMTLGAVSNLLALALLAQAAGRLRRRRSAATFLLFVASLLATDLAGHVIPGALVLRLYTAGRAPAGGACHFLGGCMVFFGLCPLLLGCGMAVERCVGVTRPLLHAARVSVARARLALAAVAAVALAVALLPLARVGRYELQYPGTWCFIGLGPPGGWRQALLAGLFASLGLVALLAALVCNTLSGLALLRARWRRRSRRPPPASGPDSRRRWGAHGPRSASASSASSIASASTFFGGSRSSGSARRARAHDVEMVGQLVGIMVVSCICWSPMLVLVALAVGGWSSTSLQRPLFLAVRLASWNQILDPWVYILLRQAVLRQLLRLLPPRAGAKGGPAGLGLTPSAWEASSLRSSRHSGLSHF

[4] = target: T2, Prostaglandin E2 receptor EP4 subtype; test: Activity at EP4 receptor at 1 uM by FLIPR assay
[5] = target: T4, Thromboxane A2 receptor (Homo sapiens) (UniProt P21731); test: Activity at TP receptor at 10 uM by FLIPR assay
T4 sequence (whole entry): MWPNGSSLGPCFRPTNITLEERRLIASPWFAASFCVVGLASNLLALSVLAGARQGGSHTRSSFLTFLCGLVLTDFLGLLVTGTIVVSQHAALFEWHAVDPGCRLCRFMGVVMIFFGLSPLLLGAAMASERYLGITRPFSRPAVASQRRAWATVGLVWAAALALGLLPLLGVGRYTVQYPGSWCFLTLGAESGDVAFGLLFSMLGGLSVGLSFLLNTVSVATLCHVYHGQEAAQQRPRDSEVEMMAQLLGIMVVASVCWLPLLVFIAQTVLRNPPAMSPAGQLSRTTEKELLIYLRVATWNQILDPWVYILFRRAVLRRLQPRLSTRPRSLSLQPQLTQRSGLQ

[6] = target: T2, Prostaglandin E2 receptor EP4 subtype; test: Activity at EP4 receptor at 0.1 uM by FLIPR assay
[7] = target: T5, Prostaglandin E2 receptor EP3 subtype (Homo sapiens) (UniProt P43115); test: Displacement of [3H]PGE2 from human EP3 receptor in presence of 10% human serum
T5 sequence (whole entry): T1 sequence (P43115 whole entry)

[8] = target: T6, Prostaglandin F2-alpha receptor (Homo sapiens, UniProt P43088); test: Activity at FP receptor at 10 uM by FLIPR assay
T6 sequence (P43088 whole entry): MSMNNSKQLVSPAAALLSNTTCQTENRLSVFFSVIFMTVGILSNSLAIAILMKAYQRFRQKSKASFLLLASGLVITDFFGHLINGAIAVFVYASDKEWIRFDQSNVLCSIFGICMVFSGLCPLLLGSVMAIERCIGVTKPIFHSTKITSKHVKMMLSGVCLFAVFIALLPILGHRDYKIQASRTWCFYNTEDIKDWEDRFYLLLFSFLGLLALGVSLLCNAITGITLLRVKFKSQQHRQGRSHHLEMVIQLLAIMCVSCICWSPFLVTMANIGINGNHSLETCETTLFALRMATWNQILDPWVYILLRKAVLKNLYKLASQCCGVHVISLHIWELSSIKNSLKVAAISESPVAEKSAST

[9] = target: T6, Prostaglandin F2-alpha receptor; test: Activity at FP receptor at 1 uM by FLIPR assay
[10] = target: T4, Thromboxane A2 receptor (Homo sapiens); test: Activity at TP receptor at 1 uM by FLIPR assay
[11] = target: T6, Prostaglandin F2-alpha receptor; test: Activity at FP receptor at 0.1 uM by FLIPR assay
[12] = target: T4, Thromboxane A2 receptor (Homo sapiens); test: Activity at TP receptor at 0.1 uM by FLIPR assay
[13] = target: T3, Prostaglandin E2 receptor EP1 subtype (Homo sapiens); test: Activity at EP1 receptor at 10 uM by FLIPR assay
[14] = target: T3, Prostaglandin E2 receptor EP1 subtype (Homo sapiens); test: Activity at EP1 receptor at 1 uM by FLIPR assay
Platelet = test: Inhibition of PGE2/collagen-induced platelet aggregation rat platelets rich plasma; type: functional
[15] = Metabolic stability in rat liver microsomes assessed as compound remaining after 30 mins; type: ADME, Microsome; conditions: read-out: Stability
[16] = Protein binding in plasma by HSA-HPLC method; type: ADME, cell-free; conditions: human, read-out: PB (converted)
[17] = Metabolic stability in human liver microsomes assessed as compound remaining after 30 mins; type: ADME, Microsome; conditions: read-out: Stability

| SMILES | IC50 [1] | Activity [2] | Activity [3] | Activity [4] | Activity [5] | Activity [6] | fold change (FC) [7] | Activity [8] | Activity [9] | Activity [10] | Activity [11] | Activity [12] | Activity [13] | Activity [14] | IC50 (Platelet) | remaining at 0.5 h [15] | fraction unbound [16] | remaining at 0.5 h [17] |
| --- | --- | --- | --- | --- | --- | --- | --- | --- | --- | --- | --- | --- | --- | --- | --- | --- | --- | --- |
| Cc1cn(Cc2ccc(F)cc2F)c2c(-c3cc(NS(C)(=O)=O)on3)cc(F)cc12 | 17.9 µM |  |  |  |  |  |  |  |  |  |  |  |  |  |  |  |  |  |
| Cc1cn(Cc2ccc(F)c(F)c2)c2c(-c3cc(NS(=O)(=O)c4ccc(F)c(F)c4F)no3)cc(F)cc12 | 0.012 µM | 38% | 5% | -3% | 70% | -8% | 103 | 99% | -11% | 3% | 3% | 5% | 99% | 77% |  |  |  |  |
| Cc1cn(Cc2ccc(F)c(F)c2)c2c(-c3cc(NS(=O)(=O)c4cc(Cl)c(Cl)s4)nn3C)cc(F)cc12 | 1.98 µM |  |  |  |  |  | 1 |  |  |  |  |  |  |  |  |  |  |  |
| Cc1cn(Cc2ccc(F)c(F)c2)c2c(-c3cc(NS(=O)(=O)c4cc(Cl)c(Cl)s4)no3)cc(F)cc12 | 0.059 µM | 18% | -8% | 11% | 11% | 9% | 24.2 | 31% | 18% | -3% | 8% | 3% | 52% | -5% |  |  |  |  |
| Cc1cn(Cc2ccc(Cl)cc2Cl)c2c(-c3nnc(NC(=O)c4ccc5c(c4)OC(F)(F)O5)o3)cc(F)cc12 | 0.244 µM |  |  |  |  |  | 21.4 |  |  |  |  |  |  |  |  |  |  |  |
| Cc1cn(Cc2ccc(Cl)cc2Cl)c2c(-c3nnc(NS(=O)(=O)c4ccc(F)c(F)c4)o3)cc(F)cc12 | 0.02 µM | 32% | -11% | 26% | 89% | 13% | 2.4 | 41% | 26% | 9% | 22% | -5% | 100% | 30% | 2.71 µM | 42.5% |  |  |
| Cc1cn(Cc2ccc3ccccc3c2)c2c(-c3cc(NS(=O)(=O)c4cc(F)c(F)cc4F)no3)cc(F)cc12 | 0.008 µM | 9% | -2% | -17% | 19% | -17% | 2.3 | 19% | 3% | -5% | -3% | -9% | 100% | 29% |  |  |  |  |
| Cc1cn(Cc2ccc3ccccc3c2)c2c(-c3cc(NS(=O)(=O)c4cc(Cl)c(Cl)s4)no3)cc(F)cc12 | 0.001 µM | 10% | -10% | -9% | 7% | -9% | 3.6 | 7% | -4% | -7% | -7% | -12% | 80% | 0% | 3.24 µM |  |  |  |
| Cc1cn(Cc2ccc(Cl)cc2Cl)c2c(-c3nnc(NS(=O)(=O)c4cc(F)c(F)cc4F)o3)cc(F)cc12 | 0.002 µM | 84% | 25% | 15% | 99% | 9% | 22 | 64% | 21% | 11% | 5% | 3% | 99% | 94% |  |  | 0.006 |  |
| Cc1cn(Cc2ccc(Cl)cc2Cl)c2c(-c3ccc(NS(=O)(=O)c4cc(Cl)c(Cl)s4)nc3)cc(F)cc12 | 0.002 µM |  |  |  |  |  | 217 |  |  |  |  |  |  |  |  |  |  |  |
| Cc1cn(Cc2ccc(Cl)cc2Cl)c2c(-c3nnc(NS(=O)(=O)c4cc(Cl)c(Cl)s4)o3)cc(F)cc12 | 0.01 µM |  |  |  |  |  | 27 |  |  |  |  |  |  |  |  | 46.4% | 0.002 | 62.7% |
| Cc1cn(Cc2ccc(Cl)cc2Cl)c2c(-c3cc(NS(=O)(=O)c4ccc(Cl)c(Cl)c4)no3)cc(F)cc12 | 0.001 µM |  |  |  |  |  | 18 |  |  |  |  |  |  |  |  |  |  |  |
| Cc1cn(Cc2ccc(Cl)cc2Cl)c2c(-c3nnc(NC(=O)c4ccco4)o3)cc(F)cc12 | 0.363 µM |  |  |  |  |  |  |  |  |  |  |  |  |  |  |  |  |  |
| Cc1cn(Cc2ccc3ccccc3c2)c2c(-c3cc(NS(=O)(=O)c4ccc(F)c(F)c4)no3)cc(F)cc12 | 0.001 µM | -4% | -3% | -17% | 12% | -25% | 14.6 | 6% | 0% | -2% | -9% | 3% | 62% | 9% |  | 9.9% |  |  |
| Cc1cn(Cc2ccc(F)c(F)c2)c2c(-c3cc(NS(=O)(=O)c4ccc(F)c(F)c4)no3)cc(F)cc12 | 0.044 µM | 18% | -9% | 17% | 17% | 18% | 178 | 21% | 16% | 0% | 15% | 3% | 99% | 11% |  |  |  |  |
| Cc1cn(Cc2ccc(Cl)cc2Cl)c2c(-c3nc(NS(=O)(=O)c4cc(Cl)c(Cl)s4)no3)cc(F)cc12 | 0.024 µM | 25% | 5% | -21% | 98% | -21% | 20.9 | 30% | -2% | 5% | -4% | 2% | 100% | 74% |  |  |  |  |
| Cc1cn(Cc2ccc(Cl)cc2Cl)c2c(-c3nnc(NC(=O)c4ccc(F)cc4F)o3)cc(F)cc12 | 1.02 µM |  |  |  |  |  |  |  |  |  |  |  |  |  |  |  |  |  |
| Cc1cn(Cc2ccc(Cl)cc2Cl)c2c(-c3nnc(NC(=O)c4ccc(F)c(F)c4)o3)cc(F)cc12 | 0.664 µM | 62% | -7% | 14% | 64% | 9% | 19.6 | 66% | 15% | -1% | 3% | 11% | 96% | 10% |  |  |  |  |
| Cc1cn(Cc2ccc3ccccc3c2)c2c(-c3cc(NS(=O)(=O)c4ccc(Cl)c(Cl)c4)no3)cc(F)cc12 | 0.011 µM | 3% | 2% | -15% | -13% | -29% | 4.9 | -6% | -8% | -8% | -3% | 9% | 16% | -7% |  |  |  |  |
| Cc1cn(Cc2ccc(Cl)cc2Cl)c2c(-c3cc(NS(=O)(=O)c4cc(F)c(F)cc4F)no3)cc(F)cc12 | 0.003 µM |  |  |  |  |  | 3.3 |  |  |  |  |  |  |  |  |  |  |  |
| Cc1cn(Cc2ccc(Cl)cc2Cl)c2c(-c3cc(NS(=O)(=O)c4cc(Cl)c(Cl)s4)no3)cc(F)cc12 | 0.005 µM |  |  |  |  |  | 67 |  |  |  |  |  |  |  | 1.04 µM | 57.8% |  | 46.8% |
| Cc1cn(Cc2ccc(Cl)cc2Cl)c2c(-c3nnc(NS(C)(=O)=O)o3)cc(F)cc12 | 2.57 µM |  |  |  |  |  | 199 |  |  |  |  |  |  |  |  |  |  |  |

Reference: ChEMBL document CHEMBL1154363, “Heterocyclic 1,7-disubstituted indole sulfonamides are potent and selective human EP3 receptor antagonists” (Bioorg Med Chem Lett, 2009)
